Earlier results as cited in US20110028397A1, “Use of Urokinase Type Plasminogen Activator Inhibitors for the Treatment of Corneal Disorders” (priority 2007, published 2011).

Key:
thrombin = thrombin (Homo sapiens, UniProt P00734)
[1] = eye drop prepared freshly daily, stored in refrigerator between uses
[2] = in vivo, sc

| Compound | Ki (thrombin) [nM] | anticoagulant activity (in vitro and in vivo) | antithrombotic effect in in vivo studies (in vivo) | inhibitory activity on storage [1] | biological availability [2] [%] |
| --- | --- | --- | --- | --- | --- |
| N=C(N)NCCC[C@@H](C=O)NC(=O)[C@@H]1CCCN1C(=O)[C@H](N)Cc1ccccc1 [Ald-1, D-Phe-Pro-Arg-aldehyde] | 75 | significant anticoagulant activity | effective antithrombotic drug | retains its inhibitory activity |  |
| iBuOCO-D-Ser-Ala-Arg-aldehyde |  |  |  |  | 87 |
